From article PMC11511194, “Key Factors for Improving Predictive Accuracy and Avoiding Overparameterization of the PBPK Absorption Model in Food Effect Studies of Weakly Basic Water-Insoluble Compounds in Immediate Release Formulations” (Pharmaceutics, 2024)
In brackets after ≈: the same amount, converted by molar mass. Like-named read-outs stand apart in the source and are kept apart here.

How the values were obtained:
[1] = system: ABCB1 (P-gp/MDR1); assay: P-gp efflux clearance in kidney and liver fitted in PBPK model; conditions: human, permeability-limited liver model, Canalicular, read-out: CLint,T
Text: (§1) S2. PBPK model development and validation physicochemical parameters for these three model drugs, including protein binding and Blood-to-Plasma (B/P) ratio, were obtained from experimental results, while log P and pKa were estimated based on the molecular formula using Gastro Plus ADMET software (version 10.3, […]
(§2) S2.1. Rivaroxaban PBPK model development and validation
(§3) S2.1.1. Rivaroxaban PBPK model development for metabolism and elimination module […]
(§4) its systemic clearance, CLint_CYP3A4, CLint_CYP2J2 and CLHLM were fitted according to the metabolic fraction of rivaroxaban in vivo and concentration-time profiles from the SAD clinical trial in Caucasian subjects under fasted state. […]
(§5) permeability-limited kidney and liver models were employed to account for the active efflux […]
(§6) Physicochemical properties

[2] = set-up: method as in earlier work; conditions: optimized rivaroxaban model input, cited from earlier work
[3] = Particle size distribution of the APIs (laser diffraction, dry method); type: physicochemical; conditions: API bulk drug
Description: The particle size of the API directly influences the dissolution rate of formulations and the overall bioavailability of the compound, making it a necessary parameter for establishing the PBPK absorption model. To determine the particle size distributions of the APIs employed in the formulation of rivaroxaban, ticagrelor, and PB-201, the bulk drugs used in the corresponding formulations were measured by the dry method with a Malvern Mastersizer laser diffraction size analyzer (Master 2000, Malvern Instruments Limited, Malvern, UK). Each sample was tested once.

[4] = in vivo, cited from earlier work
[5] = Dissolution tests of formulations in biorelevant media (USP 2); type: physicochemical; conditions: formulation, 500 and 900 mL FaSSIF or FeSSIF media
Description: Dissolution tests employing biorelevant media have gained widespread utilization in formulation development, offering valuable insights into the behavior of APIs and their respective formulations within the GI tract. In this study, dissolution behavior was assessed using the calibrated USP 2 apparatus (Pion Scientific Instruments, Billerica, MA, USA) across various media, including FaSSGF, FaSSIF, and FeSSIF. The fasted gastric environment was simulated with 300 mL of FaSSGF medium, while FaSSIF and FeSSIF media were used to mimic the intestinal conditions under fasted and fed states, with volumes of 500 and 900 mL, respectively. Dissolution experiments were conducted at a paddle speed of 75 rpm, with the medium temperature maintained at 37 ± 0.5 °C. Sample concentrations were monitored at 1 min intervals via an in situ fiber-optic UV dissolution real-time monitoring system. All experiments were conducted in triplicate.

[6] = Passive diffusion clearance and unbound fractions of permeability-limited kidney and liver models; conditions: Liver, Fitted
Text: as §1, §2, §3, §4, §5, §6

[7] = system: Caco-2; conditions: Apical pH : Basolateral pH 7.4 : 7.4, Passive&Active, cited from earlier work
[8] = Equilibrium solubility of APIs in aqueous and biorelevant media; type: physicochemical; conditions: 37 °C
Description: To evaluate the effect of pH and bile salt concentration within the physiological range on the solubility of APIs, the equilibrium solubility of APIs in various aqueous and biorelevant media was comprehensively investigated. Specifically, aqueous buffers, including pH 1.0 and pH 2.0 HCl solutions; pH 3.0 and pH 4.5 acetum; and pH 5.0, pH 6.5, and pH 8.0 phosphate buffer solutions (PBS), were prepared according to the guidelines outlined in the Chinese Pharmacopoeia. Additionally, biorelevant media such as FaSSGF, FaSSIF, and FeSSIF were prepared following the prescribed method for biorelevant power. An excess amount of solid drug powder was added to vials containing 20 mL of the corresponding medium, and tests were conducted with continuous stirring at 37 °C for 24 h. Drug concentration was detected every minute through an in situ fiber-optic UV dissolution real-time monitoring system (Pion Scientific Instruments, Billerica, MA, USA). All measurements were performed in triplicate.

[9] = physchem; conditions: for User log K m:w, ion / User log K m:w, neutral: bile micelle to buffer partition, Evaluated by SIVA software
Description: In this manuscript, PBPK absorption models were developed using SimCYP software (version 20, Sheffield, UK, Certara Company), while the primary solubility parameters were evaluated utilizing SIVA software (version 4, Sheffield, UK, Certara Company). The comprehensive process of parameter evaluation is as follows: Intrinsic solubility (So) and salt limiting solubility factor (SF) values were obtained according to the solubility of the API in different aqueous media and the Henderson–Hasselbalch equation (Equation (1)). Subsequently, the bile micelle to buffer partition coefficients (Km:w) in both ionized (Km:w, ionized) and un-ionized (Km:w, un-ionized) states were evaluated based on the solubility of the APIs in FaSSGF, FaSSIF, and FeSSIF media, employing Equation (1). (1) STot=So×Soscalart×1+BSt/CH2O×Km:w, un-ionized+Sit×1+BSt/CH2O×Km:w, ionized+Sbound,excipt where t is the time; STot is the total solubility of the drug in a given medium (aqueous or biorelevant medium); So is the intrinsic solubility of the drug; Soscalar is the scalar for So used to capture the increased solubility of the drug in a given medium; Si is the ionized aqueous solubility; [BS] is the bile salt concentration in a given biorelevant medium; CH2O is the concentration of water; Km:w, ionized/un-ionized are the bile micelle/buffer partition coefficients for ionized and un-ionized species, respectively; and Sbound, excip is the amount of drug bound to the excipient at a given excipient concentration.

[10] = system: CYP2J2; assay: CYP2J2 intrinsic clearance fitted in PBPK model; conditions: Fitted to in vivo metabolic fraction and SAD C-T profiles
Text: as §1, §2, §3, §4, §5, §6

[11] = Apparent permeability assay in biorelevant media (PAMPA); type: in vitro ADME; conditions: for PAMPA: optimized ticagrelor model input; for Papp: PAMPA, parallel artificial membrane
Description: In light of observed distinctions in the apparent permeability of drugs in biorelevant media compared to standard media, the apparent permeability of ticagrelor in FaSSIF and FeSSIF media was measured using the published method with the parallel artificial membrane. The apparent permeability of rivaroxaban and PB-201 (Drug-A) in biorelevant media was referenced from the published results.

[12] = ticagrelor; supplement ref 17; cited from earlier work
[13] = HCl solution, simulated gastric fluid, thermodynamic from solid, pH 1.0 HCl
[14] = HCl solution, simulated gastric fluid, thermodynamic from solid, pH 2.0 HCl
[15] = aqueous buffer, thermodynamic from solid, pH 3.0 Acetic acid buffer
[16] = aqueous buffer, thermodynamic from solid, pH 4.5 Acetic acid buffer
[17] = phosphate buffer solution (PBS), aqueous buffer, thermodynamic from solid, pH 5.0 PBS
[18] = phosphate buffer solution (PBS), pH 6.5 PBS
[19] = phosphate buffer solution (PBS), pH 8.0 PBS
[20] = thermodynamic from solid, pH 5.0 FeSSIF
[21] = thermodynamic from solid, pH 6.5 FaSSIF

D (0.1) [3] | D (0.5) [3] | D (0.9) [3] | solubility thermodynamic at 24 h [8, 13] | solubility thermodynamic at 24 h [8, 14] | solubility thermodynamic at 24 h [8, 15] | solubility thermodynamic at 24 h [8, 16] | solubility thermodynamic at 24 h ([8]; pH 1.6 FaSSGF) | solubility thermodynamic at 24 h [8, 17] | solubility thermodynamic at 24 h [8, 18] | solubility thermodynamic at 24 h [8, 19] | solubility thermodynamic at 24 h [8, 20] | solubility thermodynamic at 24 h [8, 21] | User log K m:w, ion [9] | User log K m:w, neutral [9] | Structure (SMILES) | further results
3.809 μm | 7.955 μm | 15.532 μm | 6.84 µg/mL (≈ 15.7 µM) | 8.18 µg/mL (≈ 18.8 µM) | 10.6 µg/mL (≈ 24.3 µM) | 6.55 µg/mL (≈ 15 µM) | 7.5 µg/mL (≈ 17.2 µM) | 4.85 µg/mL (≈ 11.1 µM) | 5.84 µg/mL (≈ 13.4 µM) | 5.87 µg/mL (≈ 13.5 µM) | 10.6 µg/mL (≈ 24.3 µM) | 6.17 µg/mL (≈ 14.2 µM) | 3.894 | 3.330 | O=C(NC[C@H]1CN(c2ccc(N3CCOCC3=O)cc2)C(=O)O1)c1ccc(Cl)s1 [Rivaroxaban] | hepatocyte CLint [1]: 0.03 µL/min/1e6 cells; PAMPA ([2]; Fasted (FaSSIF)): 52.6 10E-06 cm/s; PAMPA ([2]; Fed (FeSSIF)): 40.80 10E-06 cm/s; metabolic fraction of CYP2J2 to the systemic clearance ([4]; supplement ref 1): about 14%; metabolic fraction of CYP3A4 to the systemic clearance ([4]; supplement ref 1): approximately 18%; parent drug directly excreted by the kidney ([4]; supplement ref 1): about 36%; parent drug directly excreted by the liver ([4]; supplement ref 1): ~7%; contribution of liver hydrolases to systemic clearance ([4]; supplement ref 2): about 14%; dissolution percentages [5]: below 80%; fuIW [6]: 0.193; Caco-2 permeability ([7]; supplement ref 4): 8.103 10-6cm/s; solubility ([9]; aqueous buffer): 5 µg/mL (≈ 11.5 µM); Intrinsic clearance of CYP 2J2 [10]: 2.500 µL/min/pmol
3.045 μm | 6.926 μm | 13.605 μm | 18 µg/mL (≈ 34.4 µM) | 8.04 µg/mL (≈ 15.4 µM) | 11.6 µg/mL (≈ 22.2 µM) | 7.47 µg/mL (≈ 14.3 µM) | 14.2 µg/mL (≈ 27.2 µM) | 6.35 µg/mL (≈ 12.2 µM) | 5.97 µg/mL (≈ 11.4 µM) | 5.52 µg/mL (≈ 10.6 µM) | 4050 µg/mL (≈ 7750 µM) | 306 µg/mL (≈ 586 µM) | 8.226 | 5.941 | CCCSc1nc(N[C@@H]2C[C@H]2c2ccc(F)c(F)c2)c2nnn([C@@H]3C[C@H](OCCO)[C@@H](O)[C@H]3O)c2n1 [Ticagrelor] | PAMPA ([11]; Fasted (FaSSIF)): 90.2 10E-06 cm/s; PAMPA ([11]; Fed (FeSSIF)): 14.30 10E-06 cm/s; Papp ([11]; FaSSIF): 90.2 ×10⁻⁶ cm/s; Papp ([11]; FeSSIF): 14.3 ×10⁻⁶ cm/s; CLR typical renal clearance [12]: 0.00584 L/h; Caco-2 permeability ([7]; supplement ref 19): 6.0 10-6cm/s
